Laboratory results reported in ChEMBL document CHEMBL4507278 (2021).

Columns and labels:
[1] = target: AP2-associated protein kinase 1 (Homo sapiens) (UniProt Q2M2I8); conditions: Compound concentration 1000.0 nM
[2] = tested on: Tyrosine-protein kinase ABL1 (Homo sapiens), P00519 [Q252H]; conditions: Compound concentration 1000.0 nM
[3] = tested on: Tyrosine-protein kinase ABL1 (Homo sapiens), P00519 [T315I]; conditions: Compound concentration 1000.0 nM
[4] = target: Atypical kinase COQ8B, mitochondrial (Homo sapiens) (UniProt Q96D53); conditions: Compound concentration 1000.0 nM
[5] = tested on: ALK tyrosine kinase receptor (Homo sapiens), Q9UM73 [C1156Y]; conditions: Compound concentration 1000.0 nM
[6] = tested on: ALK tyrosine kinase receptor (Homo sapiens), Q9UM73 [L1196M]; conditions: Compound concentration 1000.0 nM
[7] = target: Mitogen-activated protein kinase kinase kinase 6 (Homo sapiens) (UniProt O95382); conditions: Compound concentration 1000.0 nM
[8] = target: Aurora kinase C (Homo sapiens) (UniProt Q9UQB9); conditions: Compound concentration 1000.0 nM
[9] = target: Bone morphogenetic protein receptor type-1A (Homo sapiens) (UniProt P36894); conditions: Compound concentration 1000.0 nM
[10] = target: Mitotic checkpoint serine/threonine-protein kinase BUB1 (Homo sapiens) (UniProt O43683); conditions: Compound concentration 1000.0 nM
[11] = target: Cyclin-dependent kinase 13 (Homo sapiens) (UniProt Q14004); conditions: Compound concentration 1000.0 nM
[12] = target: Cyclin-dependent kinase 4 (Homo sapiens) (UniProt P11802); conditions: Compound concentration 1000.0 nM
[13] = target: Cyclin-dependent kinase 4 (Homo sapiens) (UniProt P11802); conditions: Compound concentration 1000.0 nM; remark: listed apart in the source
[14] = target: Serine/threonine-protein kinase Chk1 (Homo sapiens) (UniProt O14757); conditions: Compound concentration 1000.0 nM
[15] = target: Dual specificity protein kinase CLK4 (Homo sapiens) (UniProt Q9HAZ1); conditions: Compound concentration 1000.0 nM
[16] = target: Macrophage colony-stimulating factor 1 receptor (Homo sapiens) (UniProt P07333); conditions: Compound concentration 1000.0 nM
[17] = target: Megakaryocyte-associated tyrosine-protein kinase (Homo sapiens) (UniProt P42679); conditions: Compound concentration 1000.0 nM
[18] = tested on: Epidermal growth factor receptor (Homo sapiens), P00533 [UNDEFINED MUTATION]; conditions: Compound concentration 1000.0 nM
[19] = target: Ephrin type-A receptor 3 (Homo sapiens) (UniProt P29320); conditions: Compound concentration 1000.0 nM
[20] = target: Ephrin type-B receptor 2 (Homo sapiens) (UniProt P29323); conditions: Compound concentration 1000.0 nM
[21] = target: Mitogen-activated protein kinase 7 (Homo sapiens) (UniProt Q13164); conditions: Compound concentration 1000.0 nM
[22] = target: Cyclin-G-associated kinase (Homo sapiens) (UniProt O14976); conditions: Compound concentration 1000.0 nM
[23] = target: Homeodomain-interacting protein kinase 2 (Homo sapiens) (UniProt Q9H2X6); conditions: Compound concentration 1000.0 nM
[24] = target: Interleukin-1 receptor-associated kinase 4 (Homo sapiens) (UniProt Q9NWZ3); conditions: Compound concentration 1000.0 nM
[25] = target: Tyrosine-protein kinase ITK/TSK (Homo sapiens) (UniProt Q08881); conditions: Compound concentration 1000.0 nM
[26] = target: Tyrosine-protein kinase JAK1 (Homo sapiens) (UniProt P23458); conditions: Compound concentration 1000.0 nM
[27] = target: Mitogen-activated protein kinase 9 (Homo sapiens) (UniProt P45984); conditions: Compound concentration 1000.0 nM
[28] = target: Mitogen-activated protein kinase kinase kinase 15 (Homo sapiens) (UniProt Q6ZN16); conditions: Compound concentration 1000.0 nM
[29] = target: Dual specificity mitogen-activated protein kinase kinase 5 (Homo sapiens) (UniProt Q13163); conditions: Compound concentration 1000.0 nM
[30] = target: Serine/threonine-protein kinase 26 (Homo sapiens) (UniProt Q9P289); conditions: Compound concentration 1000.0 nM
[31] = target: Serine/threonine-protein kinase Nek5 (Homo sapiens) (UniProt Q6P3R8); conditions: Compound concentration 1000.0 nM
[32] = tested on: Phosphatidylinositol 4,5-bisphosphate 3-kinase catalytic subunit alpha isoform (Homo sapiens), P42336 [E542K]; conditions: Compound concentration 1000.0 nM
[33] = target: Phosphatidylinositol 4-phosphate 5-kinase type-1 gamma (Homo sapiens) (UniProt O60331); conditions: Compound concentration 1000.0 nM
[34] = target: Membrane-associated tyrosine- and threonine-specific cdc2-inhibitory kinase (Homo sapiens) (UniProt Q99640); conditions: Compound concentration 1000.0 nM
[35] = target: Serine/threonine-protein kinase N1 (Homo sapiens) (UniProt Q16512); conditions: Compound concentration 1000.0 nM
[36] = target: Serine/threonine-protein kinase PLK2 (Homo sapiens) (UniProt Q9NYY3); conditions: Compound concentration 1000.0 nM
[37] = target: Protein kinase C eta type (Homo sapiens) (UniProt P24723); conditions: Compound concentration 1000.0 nM
[38] = target: Ribosomal protein S6 kinase alpha-3 (Homo sapiens) (UniProt P51812); conditions: Compound concentration 1000.0 nM
[39] = target: Serine/threonine-protein kinase Sgk2 (Homo sapiens) (UniProt Q9HBY8); conditions: Compound concentration 1000.0 nM
[40] = target: High affinity nerve growth factor receptor (Homo sapiens) (UniProt P04629); conditions: Compound concentration 1000.0 nM
[41] = target: Mitogen-activated protein kinase kinase kinase 20 (Homo sapiens) (UniProt Q9NYL2); conditions: Compound concentration 1000.0 nM
[42] = target: Histamine H1 receptor (Homo sapiens) (UniProt P35367); conditions: Compound concentration 10.0 uM
[43] = target: Alpha-1A adrenergic receptor (Homo sapiens) (UniProt P35348); conditions: Compound concentration 10.0 uM
[44] = target: Muscarinic acetylcholine receptor M4 (Homo sapiens) (UniProt P08173); conditions: Compound concentration 10.0 uM
[45] = target: Beta-3 adrenergic receptor (Homo sapiens) (UniProt P13945); conditions: Compound concentration 10.0 uM
Rattus norvegicus = species: Rattus norvegicus; conditions: Compound concentration 10.0 uM

Cyclin-dependent kinase 4 (Homo sapiens), sequence (P11802 whole entry): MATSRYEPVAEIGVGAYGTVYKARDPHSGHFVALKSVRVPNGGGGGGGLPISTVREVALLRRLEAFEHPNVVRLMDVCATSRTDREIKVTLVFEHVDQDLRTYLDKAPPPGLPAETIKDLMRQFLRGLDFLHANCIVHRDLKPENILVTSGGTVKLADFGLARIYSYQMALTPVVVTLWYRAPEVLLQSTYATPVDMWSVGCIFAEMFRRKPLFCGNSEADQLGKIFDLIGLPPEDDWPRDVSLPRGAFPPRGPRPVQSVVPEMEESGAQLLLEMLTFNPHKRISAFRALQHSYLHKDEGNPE
Phosphatidylinositol 4,5-bisphosphate 3-kinase catalytic subunit alpha isoform (Homo sapiens), P42336 [E542K], sequence (P42336 whole entry E542K, canonical isoform): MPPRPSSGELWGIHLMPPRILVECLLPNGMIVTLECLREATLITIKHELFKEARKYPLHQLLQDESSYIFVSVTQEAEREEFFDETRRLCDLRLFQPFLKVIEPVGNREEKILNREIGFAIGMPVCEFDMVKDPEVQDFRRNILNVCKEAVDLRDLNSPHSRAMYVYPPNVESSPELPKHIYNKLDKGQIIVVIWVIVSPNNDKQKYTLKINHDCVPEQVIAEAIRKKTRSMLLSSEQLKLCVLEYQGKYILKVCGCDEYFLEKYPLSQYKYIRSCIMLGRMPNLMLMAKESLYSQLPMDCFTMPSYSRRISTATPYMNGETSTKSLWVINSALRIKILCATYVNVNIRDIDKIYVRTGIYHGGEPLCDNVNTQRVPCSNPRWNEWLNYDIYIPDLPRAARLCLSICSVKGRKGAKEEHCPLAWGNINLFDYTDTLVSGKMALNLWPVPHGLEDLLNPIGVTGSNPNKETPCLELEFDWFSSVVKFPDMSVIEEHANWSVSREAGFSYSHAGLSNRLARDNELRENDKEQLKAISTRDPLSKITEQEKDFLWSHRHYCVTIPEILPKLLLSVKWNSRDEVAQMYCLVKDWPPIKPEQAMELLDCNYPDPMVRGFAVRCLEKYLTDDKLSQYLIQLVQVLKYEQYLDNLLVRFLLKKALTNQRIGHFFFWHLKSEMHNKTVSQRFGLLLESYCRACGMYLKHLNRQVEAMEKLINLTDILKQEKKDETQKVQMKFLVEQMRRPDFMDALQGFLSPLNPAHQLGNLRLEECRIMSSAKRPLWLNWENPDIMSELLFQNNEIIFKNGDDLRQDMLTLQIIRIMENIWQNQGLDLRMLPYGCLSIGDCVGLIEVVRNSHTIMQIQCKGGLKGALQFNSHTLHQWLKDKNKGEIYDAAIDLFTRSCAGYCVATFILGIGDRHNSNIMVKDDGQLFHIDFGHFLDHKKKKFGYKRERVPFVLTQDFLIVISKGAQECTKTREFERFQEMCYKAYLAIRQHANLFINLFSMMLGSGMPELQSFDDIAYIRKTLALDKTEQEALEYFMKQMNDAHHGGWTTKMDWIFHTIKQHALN
Tyrosine-protein kinase ITK/TSK (Homo sapiens), sequence (Q08881 whole entry): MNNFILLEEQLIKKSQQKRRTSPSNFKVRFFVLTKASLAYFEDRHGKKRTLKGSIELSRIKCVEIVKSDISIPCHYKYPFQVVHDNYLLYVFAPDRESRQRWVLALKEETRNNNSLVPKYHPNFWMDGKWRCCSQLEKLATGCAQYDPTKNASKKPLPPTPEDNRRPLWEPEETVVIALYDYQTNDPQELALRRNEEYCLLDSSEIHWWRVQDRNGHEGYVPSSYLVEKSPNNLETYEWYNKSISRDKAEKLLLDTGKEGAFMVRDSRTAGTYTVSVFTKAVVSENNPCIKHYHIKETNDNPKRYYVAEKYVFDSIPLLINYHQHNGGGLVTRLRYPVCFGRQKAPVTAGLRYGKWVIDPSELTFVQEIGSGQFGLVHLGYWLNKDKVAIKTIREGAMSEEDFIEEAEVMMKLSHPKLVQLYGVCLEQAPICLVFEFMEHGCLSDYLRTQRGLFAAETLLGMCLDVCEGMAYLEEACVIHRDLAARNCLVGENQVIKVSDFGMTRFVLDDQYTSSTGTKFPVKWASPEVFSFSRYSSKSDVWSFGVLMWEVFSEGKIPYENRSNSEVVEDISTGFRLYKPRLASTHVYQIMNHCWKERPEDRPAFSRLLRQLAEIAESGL
Bone morphogenetic protein receptor type-1A (Homo sapiens), sequence (P36894 whole entry): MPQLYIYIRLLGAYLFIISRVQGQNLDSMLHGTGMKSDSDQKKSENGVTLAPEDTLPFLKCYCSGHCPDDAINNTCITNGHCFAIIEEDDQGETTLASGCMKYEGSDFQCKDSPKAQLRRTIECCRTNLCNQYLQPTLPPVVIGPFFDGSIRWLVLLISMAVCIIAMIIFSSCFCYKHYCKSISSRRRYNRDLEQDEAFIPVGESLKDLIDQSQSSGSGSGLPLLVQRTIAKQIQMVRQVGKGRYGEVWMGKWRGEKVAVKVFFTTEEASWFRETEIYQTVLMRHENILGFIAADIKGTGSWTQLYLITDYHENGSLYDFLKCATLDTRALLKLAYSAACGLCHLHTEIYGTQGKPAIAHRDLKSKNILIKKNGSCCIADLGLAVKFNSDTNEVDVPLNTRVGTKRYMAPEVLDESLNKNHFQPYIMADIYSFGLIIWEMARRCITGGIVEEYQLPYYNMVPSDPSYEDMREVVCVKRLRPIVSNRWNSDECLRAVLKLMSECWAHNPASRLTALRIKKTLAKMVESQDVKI
Atypical kinase COQ8B, mitochondrial (Homo sapiens), sequence (Q96D53 whole entry): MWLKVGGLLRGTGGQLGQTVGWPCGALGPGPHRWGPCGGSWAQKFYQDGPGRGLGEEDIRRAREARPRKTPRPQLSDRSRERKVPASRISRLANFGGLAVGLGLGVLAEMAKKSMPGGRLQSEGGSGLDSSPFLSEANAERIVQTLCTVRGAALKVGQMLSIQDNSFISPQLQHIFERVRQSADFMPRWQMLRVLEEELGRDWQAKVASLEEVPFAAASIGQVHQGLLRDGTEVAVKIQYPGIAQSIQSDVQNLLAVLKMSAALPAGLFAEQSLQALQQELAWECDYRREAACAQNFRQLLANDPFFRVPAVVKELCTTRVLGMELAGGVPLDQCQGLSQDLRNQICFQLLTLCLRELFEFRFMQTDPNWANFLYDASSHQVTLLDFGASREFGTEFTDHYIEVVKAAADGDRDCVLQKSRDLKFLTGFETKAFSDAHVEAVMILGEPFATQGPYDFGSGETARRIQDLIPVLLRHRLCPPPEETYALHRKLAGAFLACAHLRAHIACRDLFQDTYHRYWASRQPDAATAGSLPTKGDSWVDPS
Dual specificity protein kinase CLK4 (Homo sapiens), sequence (Q9HAZ1 whole entry, looked up): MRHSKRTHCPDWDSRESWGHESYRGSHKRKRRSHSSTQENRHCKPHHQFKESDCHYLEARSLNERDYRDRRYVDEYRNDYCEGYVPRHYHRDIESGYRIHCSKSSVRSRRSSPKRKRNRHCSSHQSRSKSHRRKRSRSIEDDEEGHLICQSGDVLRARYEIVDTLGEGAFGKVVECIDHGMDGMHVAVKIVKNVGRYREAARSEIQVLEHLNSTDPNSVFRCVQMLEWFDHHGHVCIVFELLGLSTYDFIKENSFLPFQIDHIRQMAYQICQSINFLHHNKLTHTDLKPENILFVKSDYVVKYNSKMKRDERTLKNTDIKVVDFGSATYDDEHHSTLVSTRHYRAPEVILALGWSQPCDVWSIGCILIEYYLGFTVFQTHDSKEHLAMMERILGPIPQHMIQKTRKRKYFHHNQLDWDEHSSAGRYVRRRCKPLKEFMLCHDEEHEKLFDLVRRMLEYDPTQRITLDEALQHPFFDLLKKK
Serine/threonine-protein kinase PLK2 (Homo sapiens), sequence (Q9NYY3 whole entry, looked up): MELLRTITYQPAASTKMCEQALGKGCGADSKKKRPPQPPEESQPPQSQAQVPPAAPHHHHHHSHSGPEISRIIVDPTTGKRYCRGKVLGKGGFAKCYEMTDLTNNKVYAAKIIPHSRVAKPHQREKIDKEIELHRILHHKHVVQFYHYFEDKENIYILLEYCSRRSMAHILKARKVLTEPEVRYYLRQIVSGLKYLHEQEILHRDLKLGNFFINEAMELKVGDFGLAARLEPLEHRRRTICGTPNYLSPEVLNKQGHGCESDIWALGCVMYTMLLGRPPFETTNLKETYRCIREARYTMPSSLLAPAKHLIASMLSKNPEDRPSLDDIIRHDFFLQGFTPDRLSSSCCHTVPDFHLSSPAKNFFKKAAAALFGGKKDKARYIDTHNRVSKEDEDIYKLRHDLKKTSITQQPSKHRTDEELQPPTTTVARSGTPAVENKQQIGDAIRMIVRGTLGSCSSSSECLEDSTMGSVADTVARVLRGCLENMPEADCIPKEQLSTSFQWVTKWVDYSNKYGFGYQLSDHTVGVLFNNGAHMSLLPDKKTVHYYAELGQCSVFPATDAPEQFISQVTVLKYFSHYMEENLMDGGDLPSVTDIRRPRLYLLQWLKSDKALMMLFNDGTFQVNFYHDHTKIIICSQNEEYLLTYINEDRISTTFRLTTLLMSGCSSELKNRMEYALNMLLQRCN
Muscarinic acetylcholine receptor M4 (Homo sapiens), sequence (P08173 whole entry): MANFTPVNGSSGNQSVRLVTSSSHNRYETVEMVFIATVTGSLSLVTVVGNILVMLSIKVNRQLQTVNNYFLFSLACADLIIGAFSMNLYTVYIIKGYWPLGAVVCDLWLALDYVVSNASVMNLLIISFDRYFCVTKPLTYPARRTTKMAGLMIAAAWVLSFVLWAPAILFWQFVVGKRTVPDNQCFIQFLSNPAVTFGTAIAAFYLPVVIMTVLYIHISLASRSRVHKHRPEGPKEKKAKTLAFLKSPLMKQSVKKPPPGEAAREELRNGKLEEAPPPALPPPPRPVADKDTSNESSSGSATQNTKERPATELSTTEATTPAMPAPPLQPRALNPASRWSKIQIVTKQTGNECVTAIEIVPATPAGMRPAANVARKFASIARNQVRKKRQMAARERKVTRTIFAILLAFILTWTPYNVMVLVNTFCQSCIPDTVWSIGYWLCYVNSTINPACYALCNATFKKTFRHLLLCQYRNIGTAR
Aurora kinase C (Homo sapiens), sequence (Q9UQB9 whole entry): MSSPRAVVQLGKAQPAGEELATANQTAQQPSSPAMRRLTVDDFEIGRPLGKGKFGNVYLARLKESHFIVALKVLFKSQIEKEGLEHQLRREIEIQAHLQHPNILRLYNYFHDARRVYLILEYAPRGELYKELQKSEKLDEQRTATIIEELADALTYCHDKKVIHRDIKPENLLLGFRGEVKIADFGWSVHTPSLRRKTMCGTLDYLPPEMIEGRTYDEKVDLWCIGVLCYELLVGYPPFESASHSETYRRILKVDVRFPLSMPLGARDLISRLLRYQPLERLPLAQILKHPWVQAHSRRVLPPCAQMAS

CS(=O)(=O)NCC[C@H](NC(=O)c1cncc2c1cnn2-c1ccc(F)cc1)c1ccnc(S(C)(=O)=O)c1 [BI 9307]
inactive: residual activity [1] 100% | residual activity [2] 81% | residual activity [3] 100% | residual activity [4] 100% | residual activity [5] 100% | residual activity [6] 100% | residual activity [7] 100% | residual activity [8] 92% | residual activity [9] 92% | residual activity [10] 100% | residual activity [11] 100% | residual activity [12] 100% | residual activity [13] 100% | residual activity [14] 97% | residual activity [15] 85% | residual activity [16] 100% | residual activity [17] 100% | residual activity [18] 100% | residual activity [19] 87% | residual activity [20] 92% | residual activity [21] 100% | residual activity [22] 100% | residual activity [23] 100% | residual activity [24] 100% | residual activity [25] 99% | residual activity [26] 100% | residual activity [27] 86% | residual activity [28] 100% | residual activity [29] 92% | residual activity [30] 98% | residual activity [31] 100% | residual activity [32] 66% | residual activity [33] 78% | residual activity [34] 84% | residual activity [35] 100% | residual activity [36] 100% | residual activity [37] 80% | residual activity [38] 98% | residual activity [39] 94% | residual activity [40] 97% | residual activity [41] 88% | inhibition [42] 12.5% | inhibition [43] -3.82% | inhibition [44] 10.8% | inhibition [45] -5.01% | inhibition (Rattus norvegicus) -5.04%

CS(=O)(=O)c1cc(C2(NC(=O)c3cncc4c3cnn4-c3ccc(F)cc3)CC2)ccn1 [BI 639667]
inactive: residual activity [1] 94% | residual activity [2] 80% | residual activity [3] 73% | residual activity [4] 100% | residual activity [5] 100% | residual activity [6] 100% | residual activity [7] 100% | residual activity [8] 100% | residual activity [9] 100% | residual activity [10] 85% | residual activity [11] 100% | residual activity [12] 83% | residual activity [13] 100% | residual activity [14] 100% | residual activity [15] 100% | residual activity [16] 79% | residual activity [17] 100% | residual activity [18] 98% | residual activity [19] 90% | residual activity [20] 100% | residual activity [21] 75% | residual activity [22] 85% | residual activity [23] 100% | residual activity [24] 100% | residual activity [25] 89% | residual activity [26] 83% | residual activity [27] 100% | residual activity [28] 67% | residual activity [29] 80% | residual activity [30] 97% | residual activity [31] 100% | residual activity [32] 80% | residual activity [33] 95% | residual activity [34] 85% | residual activity [35] 100% | residual activity [36] 70% | residual activity [37] 100% | residual activity [38] 100% | residual activity [39] 67% | residual activity [40] 96% | residual activity [41] 86% | inhibition [42] 11.2% | inhibition [43] -7.71% | inhibition [44] 13.3% | inhibition [45] -5.91% | inhibition (Rattus norvegicus) 17.9%
